Experimental data as given in ChEMBL document CHEMBL1201862, “PubChem BioAssay data set” (2004).
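48-hour exposure; five concentrations; linearly interpolated endpoints. At the GI50, growth is halved.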 The source made the active and inactive calls. No stated cut-off is given here; in the data, active = GI50 up to about 1.1 µM and inactive = higher.

Tests used:
Assay in all cases: inhibition of tumour cell growth, NCI panel, 48 h
ACHN = tested on: ACHN
HL-60 = tested on: HL-60
HCC 2998 = tested on: HCC 2998
HCT-116 = tested on: HCT-116
SR = tested on: SR
SF-268 = tested on: SF-268
OVCAR-4 = tested on: OVCAR-4
SN12C = tested on: SN12C
K562 = tested on: K562
UO-31 = tested on: UO-31
OVCAR-5 = tested on: OVCAR-5
SNB-19 = tested on: SNB-19
SF-539 = tested on: SF-539
IGROV-1 = tested on: IGROV-1
HOP-62 = tested on: HOP-62
CAKI-1 = tested on: CAKI-1
OVCAR-8 = tested on: OVCAR-8
NCI-H522 = tested on: NCI-H522
HOP-92 = tested on: HOP-92

Measured: GI50

O=C1NC2CCCCCC2C12CCCCC2 (configuration not stated)
inactive: ACHN > 100 µM | HL-60 > 100 µM | HCC 2998 > 100 µM | HCT-116 > 100 µM | SR > 100 µM | SF-268 > 100 µM | OVCAR-4 > 100 µM | SN12C > 100 µM | K562 > 100 µM | UO-31 > 100 µM | OVCAR-5 > 100 µM | SNB-19 > 100 µM | SF-539 > 100 µM | IGROV-1 > 100 µM | HOP-62 > 100 µM

CC(C)CC(N/C=C1/N=C(c2ccccc2)OC1=O)C(=O)O (configuration not stated)
inactive: ACHN > 100 µM | HL-60 > 100 µM | HCC 2998 > 100 µM | HCT-116 > 100 µM | CAKI-1 > 100 µM | SR > 100 µM | SF-268 > 100 µM | OVCAR-4 > 100 µM | OVCAR-8 > 100 µM | SN12C > 100 µM | K562 > 100 µM | NCI-H522 > 100 µM | UO-31 > 100 µM | OVCAR-5 > 100 µM | SNB-19 > 100 µM | SF-539 > 100 µM | IGROV-1 > 100 µM | HOP-62 > 100 µM

COC(=O)C1=C(O)c2cc3c(cc2[C@H](c2cc(OC)c(OC)c(OC)c2)C1C(=O)OC)OCO3 (some centres not stated)
inactive: ACHN 22.1 µM | HL-60 > 100 µM | HCC 2998 > 100 µM | HCT-116 34.7 µM | CAKI-1 25.2 µM | SR 86.5 µM | SF-268 50.8 µM | OVCAR-4 30.2 µM | OVCAR-8 39.5 µM | SN12C 25.5 µM | HOP-92 33.7 µM | K562 72.1 µM | UO-31 42.3 µM | OVCAR-5 > 100 µM | SNB-19 > 100 µM | SF-539 20.7 µM | IGROV-1 48.6 µM | HOP-62 > 100 µM

CC1CCC2C(C(=O)O[C@H]3C4CCO[C@@H](OC5OC(CO)C(O)C(O)C5O)C4[C@@]4(CO)O[C@@H]34)=CO[C@@H](OC3OC(CO)C(O)C(O)C3O)C12 (some centres not stated)
inactive: ACHN > 10 µM | HL-60 > 10 µM | HCC 2998 > 10 µM | HCT-116 > 10 µM | SR > 10 µM | SF-268 > 10 µM | OVCAR-8 > 10 µM | SN12C > 10 µM | HOP-92 > 10 µM | K562 > 10 µM | UO-31 > 10 µM | OVCAR-5 > 10 µM | SNB-19 > 10 µM | SF-539 > 10 µM | IGROV-1 > 10 µM | HOP-62 > 10 µM

CS(=O)(=O)N/N=C/CN1C(=O)c2ccccc2C1=O
inactive: ACHN > 100 µM | HL-60 > 100 µM | HCC 2998 > 100 µM | HCT-116 > 100 µM | CAKI-1 > 100 µM | SR > 100 µM | SF-268 > 100 µM | OVCAR-4 > 100 µM | OVCAR-8 > 100 µM | SN12C > 100 µM | K562 > 100 µM | NCI-H522 > 100 µM | UO-31 > 100 µM | OVCAR-5 > 100 µM | SNB-19 > 100 µM | SF-539 > 100 µM | IGROV-1 > 100 µM | HOP-62 > 100 µM

CCOC(=O)C1CCn2c(nc3c(=O)n(C)c(=O)n(C)c32)S1 (configuration not stated)
inactive: ACHN > 100 µM | HL-60 > 100 µM | HCT-116 > 100 µM | CAKI-1 > 100 µM | SR > 100 µM | SF-268 > 100 µM | OVCAR-4 > 100 µM | OVCAR-8 > 100 µM | SN12C > 100 µM | K562 > 100 µM | NCI-H522 > 100 µM | OVCAR-5 > 100 µM | SNB-19 > 100 µM | SF-539 > 100 µM | IGROV-1 > 100 µM | HOP-62 > 100 µM

C/C(=N/NC(=O)c1ccccc1S(N)(=O)=O)C(CN1CCCCC1)C(C1=C(O)C2C=CC=CC2OC1=O)c1ccccc1 (configuration not stated)
inactive: ACHN 61.7 µM | HL-60 23.4 µM | HCT-116 > 100 µM | CAKI-1 > 100 µM | SR 23.7 µM | SF-268 58.5 µM | OVCAR-4 67.1 µM | OVCAR-8 > 100 µM | SN12C 78.7 µM | HOP-92 14 µM | K562 43.6 µM | NCI-H522 52.7 µM | UO-31 74.5 µM | OVCAR-5 > 100 µM | SNB-19 87.7 µM | SF-539 > 100 µM | IGROV-1 > 100 µM | HOP-62 > 100 µM

COC(C(O)c1ccc2c(c1)OCO2)P(=O)(c1ccccc1)c1ccccc1 (configuration not stated)
inactive: ACHN > 100 µM | HL-60 > 100 µM | HCT-116 > 100 µM | CAKI-1 33.6 µM | SR > 100 µM | SF-268 > 100 µM | OVCAR-4 11.1 µM | OVCAR-8 62.1 µM | SN12C 62.8 µM | HOP-92 68.2 µM | K562 60.3 µM | NCI-H522 85.3 µM | UO-31 > 100 µM | OVCAR-5 > 100 µM | SNB-19 > 100 µM | SF-539 > 100 µM | IGROV-1 > 100 µM | HOP-62 > 100 µM
